# US6488909B1, “Chelating agents as well as their tricarbonyl complexes with technetium and rhenium” (Schering Aktiengesellschaft, priority 1998, dated 2002)
# What was measured:
# [1] = Stability study: histidine challenge, radiochemical composition by HPLC on RP18 column; format: physicochemical; settings: stirred 1 hour at 50° C.
# Protocol: (§1) The complexes are stable, so that at room temperature, no exchange of chelating agents for histidine is carried out. The. chelates and tricarbonyl-Tc-99m and Re-tricarbonyl complexes that are described in this invention are thus clearly better suited for diagnostic and therapeutic purposes than the previously known systems. A special advantage of the compounds according to the invention consists in the fact that their syntheses can be directed without using sulfur protective groups. This makes their synthesis very simple, and in addition, such compounds that are described according to the invention in particular offer the advantage that after radiochemical labeling, no further foreign molecules are contained in the solutions that are to be administered intravenously for radiodiagnosis or radiotherapy. Such foreign molecules frequently disrupt the biodistribution of the radiopharmaceutical agent and can adversely affect the diagnostic information content of the SPECT imaging. In addition, the labelings on such ligands or their coupling products can be performed on substances that accumulate selectively on diseased tissues under very mild conditions. […]
# [2] = Incubation of the Tc-99m-tricarbonyl complex in serum; format: in vitro ADME; settings: 26 hours of incubation in serum
# Protocol: as §1
Substance,radiochemical composition (HPLC chromatogram) after histidine challenge ([1]; 10 mg of histidine),decomposition products after incubation in serum [2],radiochemical composition (HPLC chromatogram) after histidine challenge ([1]; 20 mg of histidine)
Tc-99m-Tricarbonyl complex of N-(hydroxycarboxy-methyl)-N-(N′-propyl-carbamido-methyl)-S-ethyl-2-mercaptoethylamine [Example 2b],unchanged,no decomposition products,
Tc-99m-Tricarbonyl Complex of {2-(1H-pyrazol1-yl)-ethylimino}-diacetic Acid-monopropylamide [Example 7b],,,unchanged
